According to PMC8828969, “Arylamine N-Acetyltransferase 1 Activity is Regulated by the Protein Acetylation Status” (Frontiers in Pharmacology, 2022):
Read-outs that look alike come from different tables or passages of the source.

Columns and labels:
NAT1 [1] = test: NAT1 catalytic activity (PABA N-acetylation, HPLC) in lysate of treated MDA-MB-231 cells; format: cell-based, human; settings: for Ki: MDA-MB-231 cells treated 48 h, read-out: Ki, decrease of NAT1 catalytic activity (PABA N-acetylation); for lowest concentration that significantly decreased NAT1 catalytic activity / lowest concentration that significantly increased NAT1 N-acetylation of PABA: MDA-MB-231 cells, 48 h
Method: (§1) In vitro NAT1 enzymatic activity was quantified towards p-aminobenzoic acid (PABA). N-acetyl-PABA was quantified by High Performance Liquid Chromatography (HPLC) as previously described ([Hein et al., 2006]; [Stepp et al., 2018]). Briefly, cells were scaped from the plate and washed in ice-cold Phosphate Buffered Saline (PBS) and lysed in 20 mM sodium phosphate pH 7.4, 1 mM ethylenediaminetetraacetic acid (EDTA), 0.2% triton X-100, 1 mM dithiothreitol (DTT), 100 µM phenylmethanesulfonyl fluoride (PMSF), 1 μg/ml aprotinin, and 2 µM pepstatin A (MilliporeSigma, St. Louis, MO, United States). Cell lysate was centrifuged at 15,000 × g for 10 min, supernatant was recovered, and protein concentration was quantified as mentioned before. NAT1 enzymatic assay reactions containing 50 µL of suitable cell lysate, 300 µM PABA, and AcCoA (1 mM), were incubated at 37°C for 10 min. Reactions were terminated by the addition of 10 µL of 1 M acetic acid, then proteins were precipitated by centrifugation (15,000 × g for 20 min in the cold room) and supernatant was transferred to HPLC vials and injected onto a LiChrospher 100 RP-18 (125 mm × 4 mm; 5 µm) reverse phase column. Reactants and products were eluted with an Agilent 1260 Infinity II system (Agilent Technologies, Santa Clara, CA, United States). Separation of N-acetyl-PABA was achieved using a gradient of 96:4 of 20 mM sodium perchlorate pH 2.5: acetonitrile (ACN) to 88:12 20 mM sodium perchlorate:ACN over 3 min. Absorbance was recorded at 280 nm. Four independent measurements were performed in duplicate for each cell condition and cell line.
(§2) MDA-MB-231 or ZR-75-1 cells were plated in 12-well plates, at a density of 2 × 10^5 cells/well and allowed to attach to the plate overnight. […] After 48 h of drug treatment, plates were recovered and the cells were harvested for NAT1 activity assays, NAT1 mRNA and protein expression quantification as described above. For the siRNA transfection experiments, after 72 h of transfection, cells were harvested and processed as described above for the cells treated with inhibitors.

NAT1b transcript [2] = test: NAT1b mRNA quantification by qRT-PCR in MDA-MB-231 cells; format: cell-based, human; settings: 48 h
Method: (§3) NAT1 mRNA levels were measured as described previously ([Millner et al., 2012]). Primers were designed to recognize only NAT1b expression. Briefly, total RNA was isolated cells lines using the RNeasy Mini kit (Qiagen, Hilden, GER) followed by removal of contaminating DNA by treatment with Turbo DNA-free (Ambion, Austin, TX, United States). cDNA was synthetized using the High-Capacity Reverse transcriptase kit (Life Technologies, Carlsbad, CA, United States) using 1 µg of total RNA in a 20 µL reaction following manufacturer’s instructions.
as §2

Sirtuin = Sirtuin activity in inhibitor-treated cells (Sirtuin Activity kit, lysate fluorescence); format: cell-based, human
Method: (§4) The next day, cells were treated with increasing concentrations, (0–100 µM) of the inhibitor for 48 h. Following incubation, the enzymatic activity of Sirtuin and HDAC proteins was quantified using the Sirtuin Activity kit (MilliporeSigma, St. Louis, MO, United States), according to manufacturer’s instructions. […] Supernatant was recovered ant kept on ice. Samples were normalized to the lowest protein concentration sample using the Bradford protein assay (Bio-Rad, Hercules, CA, United States). Then, 20 µL of diluted cell lysate were transferred into a 96 well plate, the activity reaction mix was prepared as recommended, and the reaction was incubated for 15 min at 37°C.

NAT1 [3] = test: NAT1 catalytic activity (PABA N-acetylation, HPLC) in lysate of treated ZR-75-1 cells; format: cell-based, human; settings: for Ki: ZR-75-1 cells treated 48 h, read-out: Ki, decrease of NAT1 catalytic activity (PABA N-acetylation); for lowest concentration that significantly decreased NAT1 catalytic activity / lowest concentration that significantly upregulated NAT1 catalytic activity: ZR-75-1 cells, 48 h
Method: as §1, §2

NAT1 [4] = test: NAT1 acetylation status (acetyl-lysine immunoprecipitation, AcNAT1/NAT1) in ZR-75-1 cells; format: cell-based, human; settings: 48 h; for acetylation of NAT1 lysine residues, effect in words: vs vehicle; for NAT1 acetylation status, fold increase: vs vehicle control
Method: (§5) In order to assess the acetylation status of NAT1 protein, MDA-MB-231(6 × 10^5) and ZR-75-1 (3 × 10^6) cells were seeded onto 100 mm cell culture dishes and allowed to attach overnight. […] After 48-h drug treatment or 72-h siRNA transfection, cells were collected and lysed following the protocol of Signal-Seeker Acetyl-Lysine Detection kit (Citoskeleton, Denver, CO, United States). Briefly, after the incubation period concluded, cells were washed twice with PBS and lysed in ice-cold lysis buffer, 20 mM Tris-HCl (pH 7.4), 5 mM EDTA, 150 mM NaCl, 0.5% Triton X-100, 10 mM sodium butyrate and protease/phosphatase inhibitors cocktail. Cell lysates were incubated on ice for 20 min and isolated by centrifugation at 16,000 × g for 20 min. Supernatants were recovered and protein concentration was measured as described before. 150 µg of lysate was used for the IP; 1/10 of the sample was kept as input control. Thereafter, Acetyl Lysine Affinity Beads were added to the samples and incubated at 4°C for 2 h. Beads were washed three times with the provided wash buffer and the immunoprecipitated proteins were eluted and denatured with 2 × Laemmli buffer and boiled for 5 min. Protein samples were then separated by SDS-PAGE for 1 h at 150 V. Proteins were then transferred to PVDF membranes (Bio-Rad, Hercules, CA, United States) for 2 h at 100 V and blocked for 30 min in 1×fish gelatin (Biotium Inc., Fremont, CA, United States. After blocking, membranes were incubated with rabbit monoclonal anti-NAT1 antibody (ab109114, Abcam, Cambridge, United Kingdom) and mouse monoclonal anti-β-actin, as endogenous control (A2228, Sigma-Aldrich, St. Louis, MO, United States) overnight at 4°C with gentle agitation. The next day, the membranes were washed with TBST and incubated with secondary antibodies IRDye® 800 CW goat anti-rabbit and 680RD goat anti-mouse (LI-COR Biosciences, Lincoln, NE, United States) at room temperature for 1 hour. Finally, plates were washed with TBST and scanned using an Odyssey imaging system (LI-COR Biosciences, Lincoln, NE, United States). After detection of NAT1, the membranes were re-probed for acetyl-lysine-HRP detection using the antibody provided in the kit. Chemiluminescent detection was captured using a Fotodyne imaging system (Fotodyne Inc., Hartland, WI, United States). Densitometric analysis on the immunoblots was performed using ImageJ ([Schneider et al., 2012]) software or IMAGE STUDIO Lite software (LI-COR Biosciences, Lincoln, NE, United States), which enables quantitative analysis of blotting signals. NAT1 and acetyl-lysine levels were normalized to β-actin.

KDAC proteins = test: KDAC (Sirtuin / HDAC) activity, both breast cancer cell lines (discussion summary); format: cell-based, human; settings: MDA-MB-231 and ZR-75-1 cell lines
NAT1 [5] = test: NAT1 acetylation status (acetyl-lysine immunoprecipitation, AcNAT1/NAT1) in MDA-MB-231 cells; format: cell-based, human; settings: 48 h, vs vehicle
Method: as §5

NAT1b transcript [6] = test: NAT1b mRNA quantification by qRT-PCR in ZR-75-1 cells; format: cell-based, human; settings: 48 h
Method: as §3, §2

HDAC [7] = settings: MDA-MB-231 cells, vs vehicle control; for lowest concentration that significantly decreased HDAC deacetylase activity: 48 h
Method: as §4

NAT1 [8] = tested on: NAT1; parameters: method as in Paterson et al., 2011; settings: after treatment with TSA; ref Paterson et al., 2011; cited from earlier work
NAT1b transcript [9] = tested on: NAT1b transcript; parameters: method as in Paterson et al., 2011; settings: after treatment with TSA; ref Paterson et al., 2011; cited from earlier work
HDAC [10] = settings: ZR-75-1 cells, vs vehicle control
NAT1 [11] = tested on: NAT1; parameters: method as in Butcher et al., 2020; settings: ref Butcher et al., 2020; cited from earlier work
[12] = MDA-MB-231 cells, 48 h, vs vehicle control
[13] = MDA-MB-231 cells, 48 h treatment, vs vehicle control; read-out: IC50, Sirtuin deacetylase activity
[14] = ZR-75-1 cells, 48 h, vs vehicle control
[15] = ZR-75-1 cells, 48 h treatment, vs vehicle control; read-out: IC50, Sirtuin deacetylase activity
[16] = ZR-75-1 cells, 100 µM, vs vehicle
[17] = read-out: IC50, HDAC deacetylase activity, 48 h treatment

## N#CC(=Cc1ccc(-c2cc(Cl)ccc2Cl)o1)C(=O)Nc1cccc2ncccc12 [AGK2, 2-cyano-3-[5-(2,5-dichlorophenyl)-2-furanyl]-N-5-quinolinyl-2-propenamide]
NAT1 [1]
  Ki: 10.8 µM
  lowest concentration that significantly decreased NAT1 catalytic activity: 1 µM
NAT1b transcript [2]; 100 µM, vs vehicle
  NAT1b transcript expression, effect in words: significantly decreased
Sirtuin; [12]
  lowest concentration that significantly decreased Sirtuin activity: 10 µM
Sirtuin; [13]
  IC50: 50.1 µM
Sirtuin; [14]
  lowest concentration that significantly inhibited Sirtuin deacetylase activity: 10 µM
Sirtuin; [15]
  IC50: 27.6 µM
NAT1 [3]
  Ki: 0.55 µM
  lowest concentration that significantly decreased NAT1 catalytic activity: 1 µM
NAT1 [4]; 100 µM
  acetylation of NAT1 lysine residues, effect in words: increased
KDAC proteins
  dose producing inhibition of KDAC enzymatic activity: 10 µM
NAT1 [5]; 100 µM
  acetylated lysine residues of NAT1, effect in words: increased

## NC(=O)C1CCCc2c1[nH]c1ccc(Cl)cc21 (stereo not drawn) [EX527, 6-chloro-2,3,4,9-tetrahydro-1H-carbazole-1-carboxamide]
NAT1 [1]
  Ki: 7.03 µM
  lowest concentration that significantly decreased NAT1 catalytic activity: 0.1 µM
NAT1b transcript [2]; 100 µM, vs vehicle
  NAT1b transcript expression, effect in words: significantly decreased
Sirtuin; [12]
  lowest concentration that significantly decreased Sirtuin activity: 1 µM
Sirtuin; [14]
  lowest concentration that significantly inhibited Sirtuin deacetylase activity: 1 µM
Sirtuin; read-out: IC50, Sirtuin deacetylase activity; MDA-MB-231 cells, 48 h treatment, vs vehicle control
  IC50: 40.6 µM
Sirtuin; read-out: IC50, Sirtuin deacetylase activity; ZR-75-1 cells, 48 h treatment, vs vehicle control
  IC50: 11.8 µM
NAT1 [3]
  Ki: 0.39 µM
  lowest concentration that significantly decreased NAT1 catalytic activity: 0.01 µM
NAT1b transcript [6]; [16]
  NAT1b transcript expression, effect in words: significant decrease
KDAC proteins
  dose producing inhibition of KDAC enzymatic activity: 1 µM
NAT1 [5]; 100 µM
  acetylated lysine residues of NAT1, effect in words: increased

## O=C(CCCCCCC(=O)Nc1ccccc1)NO [SAHA, Vorinostat]
NAT1 [1]
  lowest concentration that significantly increased NAT1 N-acetylation of PABA: 10 µM
NAT1b transcript [2]; 10 and 100 µM, vs vehicle
  NAT1b transcript expression, effect in words: more NAT1b transcript expression
NAT1 [3]
  lowest concentration that significantly upregulated NAT1 catalytic activity: 10 µM
HDAC [7]
  lowest concentration that significantly decreased HDAC deacetylase activity: 10 µM

## CC(NC(=O)c1ccccc1N=Cc1c(O)ccc2ccccc12)c1ccccc1 (stereo not drawn) [Sirtinol, 2-[[(2-hydroxy-1-naphthalenyl)methylene]amino]-N-(1-phenylethyl)-benzamide]
NAT1 [1]
  Ki: 21.9 µM
  lowest concentration that significantly decreased NAT1 catalytic activity: 1 µM
NAT1b transcript [2]; 100 µM, vs vehicle
  NAT1b transcript expression, effect in words: significantly decreased
Sirtuin; [12]
  lowest concentration that significantly decreased Sirtuin activity: 100 µM
Sirtuin; [13]
  IC50: 61.7 µM
Sirtuin; [14]
  lowest concentration that significantly inhibited Sirtuin deacetylase activity: 10 µM
Sirtuin; [15]
  IC50: 35.8 µM
NAT1 [3]
  Ki: 0.02 µM
  lowest concentration that significantly decreased NAT1 catalytic activity: 0.1 µM
NAT1b transcript [6]; [16]
  NAT1b transcript expression, effect in words: significant decrease
NAT1 [4]; 10 µM
  acetylation of NAT1 lysine residues, effect in words: increased
NAT1 [4]; 100 µM
  acetylation of NAT1 lysine residues, effect in words: increased
KDAC proteins
  dose producing inhibition of KDAC enzymatic activity: 10 µM
NAT1 [5]; 100 µM
  acetylated lysine residues of NAT1, effect in words: increased

## CC(/C=C/C(=O)NO)=C\[C@@H](C)C(=O)c1ccc(N(C)C)cc1 [TSA, Trichostatin A]
NAT1 [1]
  lowest concentration that significantly increased NAT1 N-acetylation of PABA: 1 µM
NAT1b transcript [2]; 0.01 µM
  NAT1b transcription, fold increase: 3 fold
NAT1b transcript [2]; 10 µM, vs vehicle
  NAT1b transcript expression, fold increase: over 10 fold
NAT1b transcript [2]
  lowest dose with significant increase of NAT1b transcription: 0.01 µM
NAT1 [3]
  lowest concentration that significantly upregulated NAT1 catalytic activity: 1 µM
NAT1 [8]
  NAT1 catalytic activity: increase
HDAC [7]
  lowest concentration that significantly decreased HDAC deacetylase activity: 1 µM
HDAC [7]; [17]
  IC50: 13.5 µM
NAT1b transcript [6]; ZR-75-1 cells, 1 µM
  NAT1b message expression, fold increase: 6 fold
NAT1b transcript [6]; [16]
  NAT1b transcript expression, fold increase: 9 fold
NAT1b transcript [6]; ZR-75-1 cells, 1, 10 and 100 µM, vs vehicle
  NAT1b transcript expression, effect in words: more robust induction
NAT1b transcript [6]; ZR-75-1 cells
  lowest dose with significant upregulation of NAT1b message expression: 1 µM
NAT1 [4]; 10 µM
  NAT1 acetylation status, fold increase: 1.8 fold
NAT1 [4]; 100 µM
  NAT1 acetylation status, fold increase: 2.4 fold
NAT1b transcript [9]
  NAT1b transcription: upregulation
KDAC proteins
  dose producing inhibition of KDAC enzymatic activity: 0.1 µM
NAT1 [5]; 10 µM
  NAT1 acetylation, fold increase: 1.6 fold
NAT1 [5]; 100 µM
  NAT1 acetylation, fold increase: 2.1 fold
HDAC [10]; 48 h
  lowest concentration that significantly inhibited HDAC enzymatic activity: 0.1 µM
HDAC [10]; [17]
  IC50: 6.4 µM

## NC(=O)c1cccnc1 [nicotinamide]
NAT1 [11]
  acetylation of NAT1: enhanced
